According to patent publication US10744092B2, “Temperature-sensitive composite and method for preparing same” (KOREA UNIVERSITY RESEARCH AND BUSINESS FOUNDATION, SEJONG …, priority 2016, dated 2020):

Legend:
[1] = Precipitation / stability and solubility of drug in composite aqueous solution; format: physicochemical; conditions: drug not loaded in nanoparticles
Procedure: An aqueous solution was prepared by mixing 2 g of Pluronic F-127, 0.1 g of naproxen and 50 mg of sodium hyaluronate with 10 ml of distilled water, thereby preparing a polymer composite aqueous solution in which naproxen was dispersed.
An aqueous solution was prepared by mixing 1.6 g of Pluronic F-127, 0.4 g of Pluronic F-68, 50 mg of doxorubicin and 75 mg of docetaxel with 10 ml of distilled water, thereby preparing a polymer composite aqueous solution in which doxorubicin and docetaxel were dispersed.

[2] = Release pattern of drug from composite (dialysis bag in PBS pH 7.4, HPLC); format: physicochemical; conditions: at body temperature (37° C.) versus room temperature; PBS pH 7.4, dialysis bag
Procedure: To confirm the release pattern of a drug from the temperature-sensitive composite in the present invention, an experiment was carried out as follows. 20 mg of each of the temperature-sensitive composites from Examples 1, 2 and 3, and the temperature-sensitive polymer composites from Comparative Examples 1, 2 and 3 was put into a dialysis bag (filtration molecular weight cut-off—100,000), and then immersed in 20 ml of a phosphate buffer solution (PBS, pH 7.4). The temperature was maintained at 25° C. and 37.5° C. with stirring at 600 rpm. At predetermined time, 5 ml of the phosphate buffer solution was withdrawn to measure an amount of the released drug through HPLC. After sampling, the remaining phosphate buffer solution was completely removed, and a fresh phosphate buffer solution was added.

Compound | precipitation in the polymer composite [1] | release of the drug [2]
COc1ccc2cc([C@H](C)C(=O)O)ccc2c1 [naproxen] | precipitated | –
CCCCN1CCCCC1C(=O)Nc1c(C)cccc1C (stereo not shown) [bupivacaine] | – | decreased
CC(=O)O[C@@]12CO[C@@H]1C[C@H](O)[C@@]1(C)C(=O)[C@H](O)C3=C(C)[C@@H](OC(=O)[C@H](O)[C@@H](NC(=O)OC(C)(C)C)c4ccccc4)C[C@@](O)([C@@H](OC(=O)c4ccccc4)[C@H]21)C3(C)C [docetaxel] | precipitated | –
COc1cccc2c1C(=O)c1c(O)c3c(c(O)c1C2=O)C[C@@](O)(C(=O)CO)C[C@@H]3O[C@H]1C[C@H](N)[C@H](O)[C@H](C)O1 [doxorubicin] | – | decreased
